Measurements taken from US20180325914A1, “INCREASING STORAGE OF VITAMIN A, VITAMIN D AND/OR LIPIDS” (Salk Institute for Biological Studies, priority 2014, published 2018).

Tested on: primary HSCs
Conditions: mRNA-Seq expression, Day_6_JQ1

## Cc1sc2c(c1C)C(c1ccc(Cl)cc1)=N[C@@H](CC(=O)OC(C)(C)C)c1nnc(C)n1-2 [JQ1, (S)-tert-butyl 2-(4-(4-chlorophenyl)-2,3,9-trimethyl-6H-thieno[3,2-f][1,2,4]triazolo[4,3-a][1,4]diazepin-6-yl)acetate]
  Nav2 value_2: 5.311
  Ndn value_2: 33.2623
  Nnmt value_2: 30.0607
  Npr2 value_2: 10.1828
  Nradd value_2: 15.4656
  Nuak1 value_2: 12.6565
  Nudt18 value_2: 6.501
  Ogdhl value_2: 4.726
  Paqr8 value_2: 7.424
  Pcolce value_2: 103.689
  Pde4dip value_2: 14.9114
  Pdia5 value_2: 20.7466
  Pgcp value_2: 20.5624
  Pgm2 value_2: 36.9612
  Pkig value_2: 41.8645
  Pla2g4a value_2: 14.8571
  Plod3 value_2: 47.8896
  Ppp2r5b value_2: 15.5804
  Praf2 value_2: 50.8557
  Prnp value_2: 204.182
  Psd3 value_2: 5.579
  Ptger3 value_2: 6.064
  Ptgfrn value_2: 24.2749
  Ptk2b value_2: 17.1497
  Qsox1 value_2: 91.7197
  Rasl11a value_2: 68.0496
  Rasl11b value_2: 27.3606
  Reep5 value_2: 42.7167
  Rftn1 value_2: 20.5933
  Rhoq value_2: 36.4737
  Rian value_2: 23.3478
  Samd4 value_2: 15.2321
  Scd1 value_2: 23.3211
  Sec23a value_2: 28.8101
  Sepw1 value_2: 95.2318
  Serping1 value_2: 119.681
  Setbp1 value_2: 2.434
  Shroom3 value_2: 5.757
  Slc7a6 value_2: 20.2814
  Slc24a3 value_2: 3.111
  Snurf value_2: 6.708
  Steap2 value_2: 17.4478
  Thbs2 value_2: 44.7287
  Tmem9 value_2: 20.5522
  Tmem176a value_2: 136.733
  Tpm2 value_2: 114.662
  Ttc19 value_2: 10.9985
  Ufsp2 value_2: 21.3133
  Ypel5 value_2: 34.2738
  Zfp651 value_2: 5.6272
  Zmat3 value_2: 18.2014
  Zranb3 value_2: 2.608
  value_2, gene 2210013O21Rik: 38.055
  value_2, gene 2610018G03Rik: 7.783
  value_2, gene 2700094K13Rik: 52.964
  value_2, gene 2810055F11Rik: 9.372
  value_2, gene AI464131: 6.393
  value_2, gene Acadsb: 26.5141
  value_2, gene Aes: 188.935
  value_2, gene Agl: 8.667
  value_2, gene Ankrd44: 7.9209
  value_2, gene Aplp1: 20.7172
  value_2, gene Arhgap1: 99.931
  value_2, gene Aurka: 17.2799
  value_2, gene Bace1: 40.101
  value_2, gene Bmpr1a: 33.5187
  value_2, gene Bsg: 560.767
  value_2, gene Cacna2d1: 7.615
  value_2, gene Calm3: 185.514
  value_2, gene Ccdc3: 44.0572
  value_2, gene Ccdc102a: 12.129
  value_2, gene Ccdc122: 5.501
  value_2, gene Ccne1: 13.7889
  value_2, gene Cdc42bpg: 9.647
  value_2, gene Cenpa: 18.2009
  value_2, gene Cfh: 33.8709
  value_2, gene Clip3: 25.4738
  value_2, gene Cpeb2: 7.639
  value_2, gene Cpxm1: 119.242
  value_2, gene Ctsf: 19.6316
  value_2, gene Cxxc5: 28.6295
  value_2, gene Dhcr24: 17.3636
  value_2, gene Dynlt3: 74.0523
  value_2, gene Efna4: 6.053
  value_2, gene Ephb2: 12.3025
  value_2, gene Fam26e: 11.6803
  value_2, gene Fam168a: 23.5828
  value_2, gene Fat1: 68.0733
  value_2, gene Fkbp9: 153.585
  value_2, gene Fstl1: 883.839
  value_2, gene Gadd45g: 151.82
  value_2, gene Ggcx: 22.6363
  value_2, gene Gjc2: 5.148
  value_2, gene Gpam: 13.2457
  value_2, gene Gpnmb: 100.919
  value_2, gene Gpr153: 15.34
  value_2, gene Grb10: 117.152
  value_2, gene Gstm4: 11.4343
  value_2, gene Gtse1: 16.4741
  value_2, gene Gucylb3: 35.4413
  value_2, gene Gxylt2: 8.031
  value_2, gene Hic1: 40.7263
  value_2, gene Hspb6: 15.1361
  value_2, gene Htra1: 128.76
  value_2, gene Irs2: 11.6492
  value_2, gene Itgb5: 206.046
